Source: patent US20240335539A1, “MODULATION OF BCL-2 TO ENHANCE CHIMERIC ANTIGEN RECEPTOR CANCER IMMUNOTHERAPY EFFICACY” (The Trustees of the University of Pennsylvania, priority 2021, published 2024)

Columns and labels:
tumor cells = conditions: Karlsson et al. 2013; Yang et al. 2020; cited from earlier work
[1] = system: MINO, Z-138, MAVER, OCI-Ly18, SU-DHL-4, NALM6, MOLM-14; test: CART plus venetoclax or AZD5991 tumor killing, 48 hours; type: cell-based; conditions: AZD5991 125 nM, with CART19 (CART33 for MOLM-14)
Procedure: To investigate whether inhibition of MCL-1, another key anti-apoptotic regulator, lead to enhancement of tumor killing, various B-cell malignant (luciferase+) cell lines were co-cultured with either vehicle (DMSO), venetoclax or AZD5991 in the presence of CART19 for 48 hours and change of luminescence intensity was measured to quantify the tumor killing. To test the combination effect of CART/drug in different tumor types, AML cell lines (luciferase positive MOLM-14) were co-cultured with CART33 in the presence of either venetoclax or AZD5991. Tumor killing (%) was calculated using the formula: (sample−maximal tumor growth)/(lysis control−maximal tumor growth)×100. MINO (Venetoclax: 1 nM, AZD5991: 125 nM), Z-138 (Venetoclax: 25 nM, AZD5991: 125 nM), MAVER (Venetoclax: 25 nM, AZD5991: 125 nM), OCI-Ly18 (Venetoclax: 10 nM, AZD5991: 125 nM), SU-DHL-4 (Venetoclax: 500 nM, AZD5991: 125 nM), NALM6 (Venetoclax: 500 nM, AZD5991: 125 nM), MOLM-14 (Venetoclax: 125 nM, AZD5991: 125 nM). […] CART19: anti-CD19 CAR T cell.
CART19 cells were co-cultured with either vehicle (DMSO) or venetoclax and cytotoxicity was measured at 48 hours. […] This effect was further confirmed using primary NHL cells (MCL) (FIG. 1D). […]

CART19 = test: AZD5991 CART cell toxicity, co-culture with irradiated NALM6 for 120 hours; type: cell-based, human; conditions: 110-10000 nM, E:T 0.25:1
Procedure: To quantify CART cell toxicity, CART19 was co-cultured with irradiated NALM6 in the presence of either vehicle (DMSO), venetoclax or AZD5991 for 120 hours. After co-culture, samples were stained with anti-CD3 antibody and anti-CAR19 idiotype antibody to distinguish between effector (T cells) and target cells (NALM6). Survival of CART cell were then measured by using flow cytometry. E:T ratio=0.25:1. Concentrations of venetoclax and AZD5991: 110 nM, 330 nM, 1100 nM, 3300 nM and 10000 nM. […] All data represent mean±SD. **P<0.005, *P<0.05. ns: not significant.
To investigate this hypothesis, the expansion and persistence of CART19 cells in the peripheral blood of NSG mice treated with CART19 plus venetoclax or CART19 alone was analyzed using flow cytometry. […] To test whether prolonged exposure to venetoclax leads to CART cell toxicity, an in vitro venetoclax toxicity assay was performed using CART cells manufactured from 8 different T cell donors. […] Of note, the level of toxicity to CART cells varied among the different T cell donors, likely due to different apoptotic priming statuses at baseline. […] In order to discern whether the reduced survival was due to increased apoptosis or reduction of proliferation, the caspase 3/7 activity in CART19 was assessed in the presence or absence of venetoclax. […]

NALM6 = test: Targeted pro-apoptotic small molecule screening with CART19 against NALM6, killing by luminescence at 48 hours; conditions: drug 100 and 1000 nM with CART19
Procedure: Killing of NALM6 cells was quantified at 48 hours by luminescence. Drug screening of pro-apoptotic small molecules was performed with two concentrations (100 and 1000 nM). […] Two concentrations of 29 drugs were used (100 nM and 1000 nM). Killing of NALM6 cells was assessed at 48 hours by luminescence. […] UTD: untransduced T cells; CART19: anti-CD19 CAR T cell; MCL: mantle cell lymphoma; E:T=ratio of effector to target; IAP: Inhibition of apoptosis protein.
CART19 and NALM6 (luciferase+) cells were seeded at a ratio of 0.08E:1T (i.e., 600 CART: 7000 NALM6) per well in 25 μl of growth medium (RPMI1640+10% FBS+1% Pen-strep+1% glutamine) of 384-well Corning 3570 microplate using a Multidrop™ Combi Reagent Dispenser (Thermo Scientific). Following cell seeding, drugs (50 nL) were transferred to assay plates using a 50 nL slotted pin tool (V&P Scientific) and a JANUS Automated Workstation (Perkin Elmer). Compounds/drugs were added to a final concentration of 1 μM in 0.2% DMSO. Columns 1 and 23 were treated with 0.2% DMSO (negative control). […] Luminescence was measured on an EnVision Xcite Multilabel Plate Reader (PerkinElmer), using the ultrasensitive luminescence measurement technology.
In order to screen pro-apoptotic small molecules that can enhance CART cell killing, a targeted screening assay was performed. […] Tumor killing was measured by luminescence at 48 hours.

CART19-BCL-2(WT) = test: Cytotoxicity of doxorubicin on CART cells, 24 hours; type: cell-based, human; conditions: doxorubicin 300 and 1000 nM
Source text: FIGS. 26A-26H illustrate the finding that increased BCL-2 expression in T cells from CART apheretic products is associated with positive clinical outcomes in lymphoma patients at long term. FIG. 26A is a schematic description of the approach taken to investigate the relationship between the level of BCL-2 and CART's clinical response. RNA was extracted from T cells from apheretic products of 38 lymphoma patients who received CART19 immunotherapy (CTL019, i.e., tisagenleucleucel) in the clinical trial (NCT02030834). Next, BCL-2 mRNA expression was quantified via the nCounter analysis system (NanoString Technologies, Inc, Seattle, WA). FIG. 26B is a volcano plot showing differential gene expression in T cells based on best overall response (CR or NR). […] EGFR: Epidermal growth factor receptor.
Nevertheless, to further investigate the safety profile of this approach, whether CART19-BCL-2(WT) cells are still sensitive to conventional cytotoxic drugs such as chemotherapy (e.g., doxorubicin) was assessed. […] Furthermore, to enhance the safety profile of CART19-BCL-2(WT) cells, a CART suicide system (Paszkiewicz, et al., The Journal of clinical investigation 2016; 126(11):4262-72) was employed by expressing truncated EGFR into CART19-BCL-2(WT).

## CN(C)CC[C@H](CSc1ccccc1)Nc1ccc(S(=O)(=O)NC(=O)c2ccc(N3CCN(Cc4ccccc4-c4ccc(Cl)cc4)CC3)cc2)cc1[N+](=O)[O-] [ABT737]
Tumor cells
  CART-mediated tumor killing (literature): significant increase of CART-mediated tumor killing

## Cc1c2c(nn1C)CSCc1cc(n(C)n1)CSc1cc(c3ccccc3c1)OCCCc1c(C(=O)O)n(C)c3c-2c(Cl)ccc13 [AZD5991]
[1]
  Enhancement of tumor killing in presence of CART: venetoclax, but not AZD5991 (MCL-1 inhibitor), leads to enhancement of tumor killing
CART19
  CART cell toxicity (CART survival): induces severe CART cell toxicity

## CC[C@H](NC(=O)[C@H](C)NC)C(=O)N1C[C@@H](O)C[C@H]1Cc1c(-c2[nH]c3cc(F)ccc3c2C[C@@H]2C[C@H](O)CN2C(=O)[C@H](CC)NC(=O)[C@H](C)NC)[nH]c2cc(F)ccc12 [birinapant]
NALM6
  Enhancement of CART19 killing / CART cell cytotoxicity: increased CART cell cytotoxicity

## COc1cccc2c1C(=O)c1c(O)c3c(c(O)c1C2=O)C[C@@](O)(C(=O)CO)C[C@@H]3O[C@H]1C[C@H](N)[C@H](O)[C@H](C)O1 [doxorubicin]
CART19-BCL-2(WT)
  Elimination of BCL-2-expressing CART cells: fast and effective elimination of CART19-BCL-2(WT)
